Data on seven compounds can be found in patent US5821061A, “Method and reagent for detecting a ligand in a sample” (Toyo Boseki Kabushiki Kaisha, priority 1995, dated 1998).

Series [1] has as its system alkaline phosphatase of Bacillus badius TE3592. Kind of series: Substrate specificity of the alkaline phosphatase of Bacillus badius TE3592. The note with it: enzyme of Bacillus badius TE3592; for Relative Activity: substrate specificity, p-nitrophenyl phosphate = 100. The format is biochemical.
For series [2], the system named is alkaline phosphatase of Bacillus badius TE3597. Kind of series: Substrate specificity of the alkaline phosphatase of Bacillus badius TE3597. Conditions: enzyme of Bacillus badius TE3597; for Relative Activity: substrate specificity, p-nitrophenyl phosphate = 100. Format: biochemical.
The test system of series [3] is alkaline phosphatase of Bacillus badius TE3593. Kind of series: Substrate specificity of the alkaline phosphatase of Bacillus badius TE3593. Conditions: enzyme of Bacillus badius TE3593; for Relative Activity: substrate specificity, p-nitrophenyl phosphate = 100. The format is biochemical.
The conditions of series [4]: literature; cited from earlier work.
The conditions of series [5]: literature; temperature not given; cited from earlier work.

In the case of `O=P(O)(O)OCC(O)CO` (racemic) [DL-α-Glycerophosphate], the “Substrate specificity (acts on)” value in series [1], in series [2] and in series [3] was “acts on” throughout. Moreover, the “Relative Activity” value is on record as 37.9 in series [1], 67.0 in series [2] and 71.4 in series [3].

For the compound `O=P(O)(O)OC1O[C@H](CO)[C@@H](O)[C@H](O)[C@H]1O` (stereo partly drawn) [Glucose-1-phosphate], the “Relative Activity” value in series [1] is given as 0; in series [2], 25.0; in series [3], 1.44. Moreover, the “Substrate specificity (acts on)” value in series [2] was “acts on”.

Turning to `O=P(O)(O)OC[C@H]1OC(O)[C@H](O)[C@@H](O)[C@@H]1O` (stereo partly drawn) [Glucose-6-phosphate], the “Substrate specificity (acts on)” value in series [1], in series [2] and in series [3] was “acts on” in each case. The figures for the “Relative Activity” value in series [1], in series [2] and in series [3] were 14.8, 34.5 and 44.3, respectively.

Consider `NC(=O)c1ccc[n+]([C@@H]2O[C@H](COP(=O)([O-])OP(=O)(O)OC[C@H]3O[C@@H](n4cnc5c(N)ncnc54)[C@H](OP(=O)(O)O)[C@@H]3O)[C@@H](O)[C@H]2O)c1` [NADP], for which the “Substrate specificity (acts on)” value in series [1], in series [2] and in series [3] was “acts on” in each case. In addition, the entries for the “Relative Activity” value in series [1], in series [2] and in series [3] were 15.4, 15.4 and 90.5, respectively.

Consider `NCCOP(=O)(O)O` [Phosphoethanolamine], for which the “Substrate specificity (acts on)” value in series [1], in series [2] and in series [3] was “acts on” throughout. The results for the “Relative Activity” value in series [1], in series [2] and in series [3] were 44.4, 67.0 and 73.8, respectively.

As to `O=P(O)(O)OC(CO)CO` [β-Glycerophosphate], the “Substrate specificity (acts on)” value in series [1], in series [2] and in series [3] was “acts on” each time. Besides, the “Relative Activity” value in series [1] is on record as 49.7; in series [2], 67.5; in series [3], 78.1.

In the case of “alkaline phosphatase derived from Escherichia coli: alkaline phosphatase derived from Escherichia coli, used for dephosphorylation in molecular biology”, the “Stability (in words)” value in series [4] is given as “good stability”. In series [5], the Specific activity is 60 U/mg.
